According to ChEMBL document CHEMBL4308875, “Synthesis, antituberculosis studies and biological evaluation of new quinoline derivatives carrying 1,2,4-oxadiazole moiety” (Bioorg Med Chem Lett, 2019):
≈ marks a conversion by molar mass, not a printed value.

How the values were obtained:
Escherichia coli = test: Antibacterial activity against Escherichia coli ATCC 25922 after 15 days by turbidometric method; format: functional; settings: ATCC 25922, 360 h
Acinetobacter baumannii = test: Antibacterial activity against Acinetobacter baumannii ATCC 19606 after 15 days by turbidometric method; format: functional; settings: ATCC 19606 = CIP 70.34 = JCM 6841
Staphylococcus aureus = test: Antibacterial activity against Staphylococcus aureus ATCC 33591 after 15 days by turbidometric method; format: functional; settings: ATCC 33591, 360 h
Enterococcus faecium = test: Antibacterial activity against Enterococcus faecium ATCC 51559 after 15 days by turbidometric method; format: functional; settings: ATCC 51559, 360 h
Pseudomonas aeruginosa = test: Antibacterial activity against Pseudomonas aeruginosa ATCC 15442 after 15 days by turbidometric method; format: functional; settings: ATCC 15442, 360 h
Klebsiella pneumoniae = test: Antibacterial activity against Klebsiella pneumoniae ATCC 700603 after 15 days by turbidometric method; format: functional; settings: Klebsiella pneumoniae, 700603, 360 h
[1] = test system: Mycobacterium tuberculosis; test: Antitubercular activity against Mycobacterium tuberculosis H37Rv after 15 days by turbidometric method; format: functional; settings: 360 h
[2] = test system: Mycobacterium tuberculosis; test: Bacteriostatic activity against Mycobacterium tuberculosis H37Rv assessed as colony forming units at 0.002 to 64 ug/ml measured day 3 post dose by time kill assay (reference value: 0 log10CFU/ml); format: functional
[3] = test system: Mycobacterium tuberculosis; test: Bacteriostatic activity against Mycobacterium tuberculosis H37Rv assessed as colony forming units at 0.002 to 64 ug/ml measured day 7 post dose by time kill assay (reference value: 0 log10CFU/ml); format: functional
[4] = test system: Mycobacterium tuberculosis; test: Bacteriostatic activity against Mycobacterium tuberculosis H37Rv assessed as colony forming units at 0.002 to 64 ug/ml measured day 14 post dose by time kill assay (reference value: 0 log10CFU/ml); format: functional
[5] = test system: Mycobacterium tuberculosis; test: Bacteriostatic activity against Mycobacterium tuberculosis H37Rv assessed as colony forming units at 0.002 to 64 ug/ml measured day 21 post dose by time kill assay (reference value: 0 log10CFU/ml); format: functional
[6] = Metabolic stability in human liver microsomes assessed as compound remaining at 1 uM after 15 mins in presence of G-6-P, G-6-PDH, MgCl2 and NADP+ by LC-MS/MS analysis (reference value: 100%)
[7] = Metabolic stability in human liver microsomes assessed as compound remaining at 1 uM after 30 mins in presence of G-6-P, G-6-PDH, MgCl2 and NADP+ by LC-MS/MS analysis (reference value: 100%)
HepG2 = test: Cytotoxicity against human HepG2 cells after 24 hrs by MTT assay; format: cell-based; settings: HepG2, 24 h
[8] = Metabolic stability in human liver microsomes assessed as compound remaining at 1 uM after 60 mins in presence of G-6-P, G-6-PDH, MgCl2 and NADP+ by LC-MS/MS analysis (reference value: 100%)
[9] = Metabolic stability in human liver microsomes assessed as compound remaining at 1 uM after 120 mins in presence of G-6-P, G-6-PDH, MgCl2 and NADP+ by LC-MS/MS analysis (reference value: 100%)
[10] = Metabolic stability in human liver microsomes assessed as compound remaining at 1 uM after 120 mins by LC-MS/MS analysis (reference value: 100%)
[11] = Cmax in BALB/c mouse at 30 mg/kg, po; format: ADME, organism-based; set-up: dose 30 mg/kg, route oral; settings: in vivo
[12] = Tmax in BALB/c mouse at 30 mg/kg, po; format: ADME, organism-based; settings: in vivo
[13] = AUClast in BALB/c mouse at 30 mg/kg, po; format: ADME, organism-based; set-up: dose 30 mg/kg, route oral, time 0 - last; settings: in vivo
[14] = AUC (infinity) in BALB/c mouse at 30 mg/kg, po; format: ADME, organism-based; set-up: dose 30 mg/kg, time infinity, route oral; settings: in vivo
[15] = Extrapolated AUC in BALB/c mouse at 30 mg/kg, po; format: ADME, organism-based; settings: in vivo
[16] = Half life in BALB/c mouse at 30 mg/kg, po; format: ADME, organism-based; settings: in vivo
[17] = MRTlast in BALB/c mouse at 30 mg/kg, po; format: ADME, organism-based; settings: in vivo

O=C(O)c1cn(C2CC2)c2cc(N3CCNCC3)c(F)cc2c1=O [CIPROFLOXACIN]
MIC (Escherichia coli): 0.007 µg/mL (≈ 0.0211 µM) | MIC (Acinetobacter baumannii): < 1 µg/mL | MIC (Staphylococcus aureus): < 1 µg/mL | MIC (Enterococcus faecium): 8 µg/mL (≈ 24.1 µM) | MIC (Pseudomonas aeruginosa): < 1 µg/mL | MIC (Klebsiella pneumoniae): < 1 µg/mL

NNC(=O)c1ccncc1 [ISONIAZID]
MIC [1]: 0.015 µg/mL (≈ 0.109 µM)

Fc1cc(F)cc(-c2ccc3c(N4CCN(Cc5noc(-c6cc(F)cc(F)c6)n5)CC4)ccnc3c2)c1
MIC [1]: 64 µg/mL (≈ 123 µM)

COc1cc(OC)cc(-c2nc(CN3CCN(c4ccnc5cc(-c6cc(F)cc(F)c6)ccc45)CC3)no2)c1
MIC [1]: 256 µg/mL (≈ 471 µM)

CO[C@H]1/C=C/O[C@@]2(C)Oc3c(C)c(O)c4c(O)c(c(/C=N/N5CCN(C)CC5)c(O)c4c3C2=O)NC(=O)/C(C)=C\C=C\[C@H](C)[C@H](O)[C@@H](C)[C@@H](O)[C@@H](C)[C@H](OC(C)=O)[C@@H]1C [RIFAMPIN]
MIC [1]: 0.03 µg/mL (≈ 0.0365 µM) | Emax [2]: 4.2 log10CFU/ml | Emax [3]: 6.2 log10CFU/ml | Emax [4]: 6.2 log10CFU/ml | Emax [5]: 6.3 log10CFU/ml

Fc1cc(F)cc(-c2nc(CN3CCN(c4ccnc5cc(-c6ccncc6)ccc45)CC3)no2)c1
MIC [1]: 16 µg/mL (≈ 33 µM)

Cc1cccc(-c2nc(CN3CCN(c4ccnc5cc(-c6ccncc6)ccc45)CC3)no2)c1C
MIC [1]: 2 µg/mL (≈ 4.2 µM)

N#Cc1cccc(-c2nc(CN3CCN(c4ccnc5cc(-c6cc(F)cc(F)c6)ccc45)CC3)no2)c1
MIC [1]: > 256 µg/mL

CC(C)c1ccc(-c2nc(CN3CCN(c4ccnc5cc(-c6cc(F)cc(F)c6)ccc45)CC3)no2)cc1
MIC [1]: 32 µg/mL (≈ 60.9 µM)

Fc1cc(F)cc(-c2nc(CN3CCN(c4ccnc5cc(Cl)ccc45)CC3)no2)c1
MIC [1]: > 128 µg/mL

Cc1cccc(-c2nc(CN3CCN(c4ccnc5cc(-c6cccnc6)ccc45)CC3)no2)c1C
remaining at 0.25 h, 1 µM [6]: 65.1% | remaining at 0.5 h, 1 µM [7]: 47.3% | MIC [1]: 0.25 µg/mL (≈ 0.525 µM) | MIC (Escherichia coli): > 32 µg/mL | MIC (Acinetobacter baumannii): > 32 µg/mL | MIC (Staphylococcus aureus): > 32 µg/mL | MIC (Enterococcus faecium): > 32 µg/mL | MIC (Pseudomonas aeruginosa): > 32 µg/mL | MIC (Klebsiella pneumoniae): > 32 µg/mL | IC50 (HepG2): > 100 µM | remaining at 1 h, 1 µM [8]: 31.7% | remaining at 2 h, 1 µM [9]: 18.1% | remaining at 2 h, 1 µM [10]: 78% | Cmax [11]: 6410 ng/mL | Tmax [12]: 30 min | AUC(0-t) [13]: 8290 ng·h/mL | AUC(0-inf) [14]: 8310 ng·h/mL | %AUCextra [15]: 0.22% | half-life [16]: 56.4 min | MRT last [17]: 80.4 min

Cc1cccc(-c2nc(CN3CCN(c4ccnc5cc(Cl)ccc45)CC3)no2)c1C
MIC [1]: 64 µg/mL (≈ 147 µM)

CC(C)c1ccc(-c2nc(CN3CCN(c4ccnc5cc(-c6cccnc6)ccc45)CC3)no2)cc1
remaining at 0.25 h, 1 µM [6]: 74.1% | remaining at 0.5 h, 1 µM [7]: 56.8% | MIC [1]: 0.25 µg/mL (≈ 0.51 µM) | MIC (Escherichia coli): > 32 µg/mL | MIC (Acinetobacter baumannii): > 32 µg/mL | MIC (Staphylococcus aureus): > 32 µg/mL | MIC (Enterococcus faecium): > 32 µg/mL | MIC (Pseudomonas aeruginosa): > 32 µg/mL | MIC (Klebsiella pneumoniae): > 32 µg/mL | IC50 (HepG2): > 100 µM | remaining at 1 h, 1 µM [8]: 40.1% | remaining at 2 h, 1 µM [9]: 23% | remaining at 2 h, 1 µM [10]: 76.5% | Cmax [11]: 7440 ng/mL | Tmax [12]: 30 min | AUC(0-t) [13]: 11900 ng·h/mL | AUC(0-inf) [14]: 11900 ng·h/mL | %AUCextra [15]: 0.6% | half-life [16]: 63 min | MRT last [17]: 82.8 min
